This is an account of results in patent US20120207737A1, “MEDICAL UTILITY OF GLYCAN-BINDING PROTEINS AND GLYCANS” (UNIVERSITY OF ZURICH, priority 2009, published 2012).

Entries after “also recorded” stand apart in the source; their conditions may differ.

For assay [1], the target named is T1, Coprinopsis cinerea galectin CGL2, wild type (Genbank AAF34732) (Coprinopsis cinerea, UniProt Q9P4R8).
T1 construct: amplifying the respective open reading frame from cDNA or available plasmids; made in house; host or cells: Escherichia coli BL21(DE3), vector pET24a
T1 sequence (Q9P4R8 whole entry): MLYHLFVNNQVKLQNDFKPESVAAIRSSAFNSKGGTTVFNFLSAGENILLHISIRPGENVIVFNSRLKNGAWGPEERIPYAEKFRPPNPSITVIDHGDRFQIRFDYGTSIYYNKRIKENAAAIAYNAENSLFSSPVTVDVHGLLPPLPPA
The assay can be described thus: Isothermal Titration Microcalorimetry (ITC), in vitro binding of C. cinerea galectin CGL2 to synthetic trisaccharide. Conditions: 25° C. How it is done: The raw data is shown in the upper panel.
Bacterial cell pellets were resuspended in ice-cold phosphate-buffered saline (PBS) [30 mM Na-phosphate pH 7.3, 150 mM NaCl] containing 1 mM phenylmethylsulfonyl fluoride and ruptured using a French press. Cell debris was removed in two consecutive steps of centrifugation at 12000 g for 15 min and 27000 g for 30 min. The supernatant was incubated with lactosyl-sepharose at 4° C. for 1 h and CGL2 was finally eluted at room temperature in PBS containing 200 mM lactose. After size exclusion chromatography on Superose 6 10/300 GL (GE Healthcare) equilibrated in PBS, fractions containing the protein were pooled and concentrated using an Amicon Ultra-4 centrifugal filter device (Millipore) with a molecular weight cutoff of 10 kDa. Protein concentration was calculated by measuring the absorbance at 280 nm, assuming a relation of 1.25 mg mk^−1 to 1 unit absorbance at 280 nm for a path length of 1 cm. Conjugation of purified CGL2 to tetramethylrhodamine (TAMRA) (Molecular Probes) was performed as described in Walser, P. J. et al. (2005) Fungal Genet Biol 42, 293-305.
Experiments were performed with a VP-ITC isothermal titration calorimeter (Microcal, Mass., USA) at 25° C. using purified CGL2 (300 μM in TBS). Gal-β-1,4-Fuc-α-1,6-GlcNAc-β-O—C5H10-NH2 was dissolved in TBS at a concentration of 1.6 mM corrected based on purity estimate by ^1H-NMR (ca. 50-60%). The ligand was titrated into a cell containing the protein solution in 48 injections of 6 μl preceded by a single injection of 2 μl. All injections were performed at intervals of 3 min while stirring at 270 rpm. Experimental data were fitted to a theoretical titration curve using the MCS—ORIGIN software supplied by Microcal.
For orientation: Isothermal titration calorimetry measures the heat released or taken up as one component is titrated into another.

For the next assay, the system named is C. elegans. The assay can be described thus: C. elegans toxicity plate assay (development L1 to L4 on lectin-expressing E. coli). Conditions: lectin-expressing E. coli cells as food source. It counts as in vivo, Caenorhabditis elegans. How it is done:
(§1) FIG. 1 is a bar chart showing the toxicity of various fungal lectins towards C. elegans. C. elegans wildtype (N2) and pmk-1 mutant worms were analysed for development from L1 to L4 on lectin-expressing bacteria as described in the Experimental Procedures. The y-coordinate is the fraction of worms reaching L4 in the presence of bacteria expressing the lectins on the X-coordinate. Fungal lectins analyzed included C. cinerea galectins CGL1 (Genbank AAF34731) and CGL2 (Genbank AAF34732), galectin-related lectin CGL3 (Genbank ABD64675) and lectin RedA (CCL2) (Genbank ACD88750), Xerocomus chrysenteron lectin XCL (Genbank AAL73235) and its ortholog TAP1 from Sordaria macrospora (Genbank CAH03681), Aleuria aurantia lectin AAL (Genbank BAA00451) and Marasmius oreades agglutinin MOA (Genbank AAL47680).
Plasmids for bacterial expression of fungal lectins were constructed by amplifying the respective open reading frame from cDNA or available plasmids and ligating the resulting fragment into pET24a (Invitrogen) using introduced restriction sites. […]
Quantitative data on the effect of CGL2 on C. elegans development was acquired by placing 50 to 100 newly hatched L1 larvae of the indicated genotypes on the plates. After 72 h, the fraction of animals that reached L4 stage was determined.

Assay [2] deals with C. elegans glycosylation mutants. The assay can be described thus: Lectin sensitivity of C. elegans glycosylation mutants (development L1 to L4). It is filed as in vivo, Caenorhabditis elegans. Conditions: testing of C. elegans glycosylation mutants, forward genetic screen. Here is the method: FIG. 4 is a graph showing the CGL2-sensitivity of various C. elegans glycosylation mutants. C. elegans mutants of the genotypes indicated in the X-coordinate were analysed for development from L1 to L4 on CGL2-expressing E. coli as described in the experimental procedures below. See Table 1 below for glycosylation processes encoded by the various C. elegans genes.
FIG. 8 is a bar graph illustrating the RedA(CCL2)-sensitivity of various C. elegans glycosylation mutants. C. elegans mutants of the indicated genotypes were analysed for development from L1 to L4 on RedA-expressing E. coli as described in the below experimental procedures. Mutants not analyzed yet are indicated as n.d. See Table 1 below for glycosylation processes encoded by the various C. elegans genes.
FIG. 9 is a bar graph illustrating the MOA-sensitivity test of various C. elegans glycosylation mutants. C. elegans mutants of the indicated genotypes were analysed for development from L1 to L4 on MOA-expressing E. coli as described in experimental procedures below. Mutants not analyzed yet are indicated as n.d. […]
FIG. 10 is a bar graph illustrating the AAL-sensitivity of various C. elegans glycosylation mutants. C. elegans mutants of the indicated genotypes were analysed for development from L1 to L4 on AAL-expressing E. coli as described in Experimental Procedures. […]

The subject of the next assay is H. contortus. The assay can be described thus: Haemonchus contortus toxicity assay (development L1 to L3, liquid, 96-well). It counts as in vivo. Conditions: bacterivorous stages fed lectin-expressing E. coli. Here is the method:
as §1, with “FIG. 12” for “FIG. 1”, “towards H. contortus. The nematodes” for “towards C. elegans. C. elegans wildtype (N2) and pmk-1 mutant worms”, “to L3” for “to L4”, “reaching L3” for “reaching L4”, “cinerea galectin” for “cinerea galectins CGL1 (Genbank AAF34731) and”, “(Genbank ABD64675),” for “(Genbank ABD64675) and”
The toxicity towards the above-mentioned parasitic nematode was evaluated in a liquid assay using 96-well cell culture plates. H. contortus eggs were isolated from feces of an infected sheep and hatched on water-agar plates containing Kanamycin (50 μg/ml) and Amphotericin B (2.5 μg/ml). Approximately 30 L1 larvae were collected and transferred to each well, in a total volume of 150 μl 0.1× Earls solution. […] Plates were incubated at 28° C. in the dark, and percentage of larvae that developed to L3 were determined after 7 days.

Setting [3] is: TBS, model of one ligand-binding site per protein monomer.

In general, Kd refers to the concentration at which binding is half-saturated. In the case of `CC(=O)N[C@H]1[C@H](OCCCCCN)O[C@H](CO[C@@H]2O[C@@H](C)[C@@H](O[C@@H]3O[C@H](CO)[C@H](O)[C@H](O)[C@H]3O)[C@@H](O)[C@@H]2O)[C@@H](O)[C@@H]1O` [Gal-β-1,4-Fuc-α-1,6-GlcNAc-β-O—C5H10—NH2], in assay [1] (TBS), the “entropy of binding (TΔS)” value was -3.31 kcal/mol. Further, in assay [1] (setting [3]), the “enthalpy change (ΔH)” value was -8.85 ± 0.1 kcal/mol and the “number of binding sites (N)” value is 0.977±0.004. Further, the Kd in assay [1] (purified CGL2 300 μM in TBS, ligand 1.6 mM, one ligand-binding site per protein monomer, read-out: dissociation constant (Kd)) was found to be 86.9 µM.

B1: AAL: β-propeller lectin from the ascomycete Aleuria aurantia (Genbank BAA00451) (protein, UniProt P18891 2-313, looked up)
Fucose-specific lectin: PTEFLYTSKIAAISWAATGGRQQRVYFQDLNGKIREAQRGGDNPWTGGSSQNVIGEAKLFSPLAAVTWKSAQGIQIRVYCVNKDNILSEFVYDGSKWITGQLGSVGVKVGSNSKLAALQWGGSESAPPNIRVYYQKSNGSGSSIHEYVWSGKWTAGASFGSTVPGTGIGATAIGPGRLRIYYQATDNKIREHCWDSNSWYVGGFSASASAGVSIAAISWGSTPNIRVYWQKGREELYEAAYGGSWNTPGQIKDASRPTPSLPDTFIAANSSGNIDISVFFQASGVSLQQWQWISGKGWSIGAVVPTGTPAGW
For the molecule B1, the “toxicity towards C. elegans” value with C. elegans is recorded as “toxic”. Moreover, the “glycan that mediates nematotoxicity / is recognized in C. elegans” value in assay [2] is on record as “binds terminal Fuc on a yet to be identified nematode glycoconjugate; also recorded: dependent on GDP-fucose biosynthesis”. Moreover, the “toxicity towards H. contortus” value in the assay with H. contortus is given as “toxic”.
